Assay in all cases: receptor-ligand binding
The target in assay [1] is 5-HT2A (Homo sapiens, UniProt P28223).
Assay [2] addresses Human D2 (Homo sapiens, UniProt P14416). To be noted: read-out: Ki (μM) / Human D2.
The target of assay [3] is T1, hD4 (Homo sapiens, UniProt P21917).
T1 sequence (P21917 1-419): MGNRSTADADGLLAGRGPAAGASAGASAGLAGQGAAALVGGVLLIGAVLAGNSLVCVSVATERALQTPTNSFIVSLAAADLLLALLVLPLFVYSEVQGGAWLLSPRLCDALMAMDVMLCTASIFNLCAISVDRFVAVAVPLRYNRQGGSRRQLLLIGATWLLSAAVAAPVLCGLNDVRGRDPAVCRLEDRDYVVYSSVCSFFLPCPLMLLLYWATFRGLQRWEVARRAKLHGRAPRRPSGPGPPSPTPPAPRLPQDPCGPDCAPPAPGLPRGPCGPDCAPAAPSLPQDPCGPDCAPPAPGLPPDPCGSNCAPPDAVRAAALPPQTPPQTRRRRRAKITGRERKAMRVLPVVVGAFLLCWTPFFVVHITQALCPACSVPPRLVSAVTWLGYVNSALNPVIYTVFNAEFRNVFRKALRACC
The conditions noted are these: given as a range.

In assay [4] the target is T2, m5-HT3 (Mus musculus, UniProt P23979).
T2 sequence (P23979 24-489): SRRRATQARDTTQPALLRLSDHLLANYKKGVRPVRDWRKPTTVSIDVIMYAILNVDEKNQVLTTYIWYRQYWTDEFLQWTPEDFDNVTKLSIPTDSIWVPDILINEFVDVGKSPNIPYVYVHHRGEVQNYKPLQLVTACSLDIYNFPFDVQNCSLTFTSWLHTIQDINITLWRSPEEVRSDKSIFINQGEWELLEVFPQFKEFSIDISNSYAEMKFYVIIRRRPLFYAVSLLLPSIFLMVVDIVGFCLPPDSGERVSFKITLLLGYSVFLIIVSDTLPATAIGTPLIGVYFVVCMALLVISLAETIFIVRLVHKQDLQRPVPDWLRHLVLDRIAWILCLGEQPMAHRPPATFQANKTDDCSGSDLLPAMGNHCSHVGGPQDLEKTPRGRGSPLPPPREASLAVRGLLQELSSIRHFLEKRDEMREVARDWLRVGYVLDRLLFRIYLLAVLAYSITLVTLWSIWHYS
To be noted: given as a range.

Assay [5] concerns the target T3, 5-HT2C (Homo sapiens, UniProt P28335).
T3 sequence (P28335 33-458): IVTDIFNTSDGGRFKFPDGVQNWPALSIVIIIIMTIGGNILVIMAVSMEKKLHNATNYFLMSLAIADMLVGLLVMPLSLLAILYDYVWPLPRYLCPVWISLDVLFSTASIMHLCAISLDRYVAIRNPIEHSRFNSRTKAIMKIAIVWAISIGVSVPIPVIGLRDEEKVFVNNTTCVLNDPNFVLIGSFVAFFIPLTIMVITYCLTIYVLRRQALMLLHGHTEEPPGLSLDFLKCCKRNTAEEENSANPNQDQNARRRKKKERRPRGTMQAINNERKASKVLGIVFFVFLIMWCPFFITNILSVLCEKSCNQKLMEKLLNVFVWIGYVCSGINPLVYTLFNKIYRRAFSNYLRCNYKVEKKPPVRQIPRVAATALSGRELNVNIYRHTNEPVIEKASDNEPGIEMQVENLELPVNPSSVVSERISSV

The target of assay [6] is Rat D2 (Rattus norvegicus, UniProt P61169). The conditions noted are these: read-out: Ki (μM) / Rat D2.
For assay [7], the target named is h5-HT4B (Homo sapiens, UniProt Q13639).
In assay [8] the target is 5-HT2B (Homo sapiens, UniProt P41595).

pKi: −log10 of the molar value.

Sequence of Rat D2 (P61169 whole entry): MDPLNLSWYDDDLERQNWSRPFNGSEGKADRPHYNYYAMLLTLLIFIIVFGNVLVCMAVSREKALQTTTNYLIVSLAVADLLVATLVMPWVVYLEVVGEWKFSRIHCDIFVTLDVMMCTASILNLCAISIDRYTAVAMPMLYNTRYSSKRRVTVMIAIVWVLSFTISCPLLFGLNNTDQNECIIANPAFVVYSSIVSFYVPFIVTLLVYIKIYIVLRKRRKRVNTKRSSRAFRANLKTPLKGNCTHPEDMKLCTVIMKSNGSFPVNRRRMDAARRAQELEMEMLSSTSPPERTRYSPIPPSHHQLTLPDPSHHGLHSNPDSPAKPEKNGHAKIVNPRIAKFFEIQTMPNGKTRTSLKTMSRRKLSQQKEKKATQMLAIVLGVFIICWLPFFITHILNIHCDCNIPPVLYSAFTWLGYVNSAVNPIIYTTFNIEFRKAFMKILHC
Sequence of 5-HT2A (P28223 whole entry): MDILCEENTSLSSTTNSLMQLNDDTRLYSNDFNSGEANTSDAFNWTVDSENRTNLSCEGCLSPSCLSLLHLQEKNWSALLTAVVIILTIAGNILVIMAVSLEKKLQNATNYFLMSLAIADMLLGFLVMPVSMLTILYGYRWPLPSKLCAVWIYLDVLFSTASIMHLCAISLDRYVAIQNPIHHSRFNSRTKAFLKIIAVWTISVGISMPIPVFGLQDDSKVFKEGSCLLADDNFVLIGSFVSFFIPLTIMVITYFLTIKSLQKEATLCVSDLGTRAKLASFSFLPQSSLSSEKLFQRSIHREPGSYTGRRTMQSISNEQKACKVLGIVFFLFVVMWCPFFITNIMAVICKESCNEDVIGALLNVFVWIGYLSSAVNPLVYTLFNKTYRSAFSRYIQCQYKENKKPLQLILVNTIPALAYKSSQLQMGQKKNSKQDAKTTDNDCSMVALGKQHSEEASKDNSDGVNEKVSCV
Sequence of Human D2 (P14416 whole entry): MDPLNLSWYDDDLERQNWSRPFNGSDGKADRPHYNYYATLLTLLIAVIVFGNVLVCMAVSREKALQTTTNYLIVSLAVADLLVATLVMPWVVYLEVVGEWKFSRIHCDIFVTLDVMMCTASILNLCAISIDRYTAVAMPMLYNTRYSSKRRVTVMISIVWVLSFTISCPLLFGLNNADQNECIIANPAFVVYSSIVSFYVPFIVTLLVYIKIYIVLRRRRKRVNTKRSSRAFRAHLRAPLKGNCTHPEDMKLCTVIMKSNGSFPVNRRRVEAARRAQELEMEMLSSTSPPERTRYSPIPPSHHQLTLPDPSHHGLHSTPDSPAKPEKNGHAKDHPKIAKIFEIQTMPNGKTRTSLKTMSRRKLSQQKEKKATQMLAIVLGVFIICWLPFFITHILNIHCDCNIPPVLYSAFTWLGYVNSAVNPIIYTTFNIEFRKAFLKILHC
Sequence of 5-HT2B (P41595 whole entry): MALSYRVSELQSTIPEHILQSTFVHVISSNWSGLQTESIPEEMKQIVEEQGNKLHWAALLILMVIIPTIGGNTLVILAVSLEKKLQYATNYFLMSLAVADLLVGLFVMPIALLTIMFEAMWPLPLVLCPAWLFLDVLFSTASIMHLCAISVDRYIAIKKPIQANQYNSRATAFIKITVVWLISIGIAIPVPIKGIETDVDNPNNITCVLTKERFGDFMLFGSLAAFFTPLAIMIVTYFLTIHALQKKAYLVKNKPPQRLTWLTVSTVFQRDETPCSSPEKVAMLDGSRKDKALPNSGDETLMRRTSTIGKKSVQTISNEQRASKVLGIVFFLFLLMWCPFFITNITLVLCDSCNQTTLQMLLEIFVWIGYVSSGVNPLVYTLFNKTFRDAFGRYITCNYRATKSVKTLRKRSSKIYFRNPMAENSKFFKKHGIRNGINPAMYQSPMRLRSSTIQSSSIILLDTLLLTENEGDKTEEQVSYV
Sequence of h5-HT4B (Q13639 whole entry): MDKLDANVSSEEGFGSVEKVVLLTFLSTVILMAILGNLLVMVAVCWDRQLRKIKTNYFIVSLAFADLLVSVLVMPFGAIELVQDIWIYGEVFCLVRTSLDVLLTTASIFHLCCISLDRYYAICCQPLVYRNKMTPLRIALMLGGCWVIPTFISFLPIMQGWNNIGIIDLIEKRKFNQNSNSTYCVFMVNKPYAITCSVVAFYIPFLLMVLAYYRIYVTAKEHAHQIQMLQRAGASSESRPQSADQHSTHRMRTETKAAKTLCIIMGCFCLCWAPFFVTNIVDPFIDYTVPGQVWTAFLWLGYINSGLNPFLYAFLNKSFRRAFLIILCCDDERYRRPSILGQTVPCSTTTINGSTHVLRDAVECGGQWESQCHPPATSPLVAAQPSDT

In the case of `COCCCN1CCC(NC(=O)c2cc(Cl)c(N)c3c2OCC3)CC1` [Prucalopride], the pKi in assay [1] was 4.52; in assay [3], 5.62 to 5.80; in assay [4], 5.42 to 5.46; in assay [5], 4.39. Besides, the Ki in assay [2] was 14 µM; in assay [6], 6 µM.
Turning to `Nc1c(Cl)cc(C(=O)NC2CCN(CCC(=O)O)CC2)c2c1CCO2` [R107504], the pKi is 7.13 in assay [7], 3.87 in assay [1], 5.00 in assay [8] and 3.68 in assay [5]. Further, the Ki was 235 µM in assay [2] and 138 µM in assay [6].

As a reminder, the pKi is the negative decadic logarithm of the Ki, by convention in mol/L.

The record behind these values is paper PMC9983627 (Drugs in Context, 2023).
